What was measured:
Test in all cases: Test D pre-/postemergence plant response
Assay type in all cases: in vivo
[1] = tested on: quackgrass (Elytrigia repens)
Text: (§1) Seeds of plant species selected from bermudagrass (Cynodon dactylon), Surinam grass (Brachiaria decumbens), large crabgrass (Digitaria sanguinalis), green foxtail (Setaria viridis), goosegrass (Eleusine indica), johnsongrass (Sorghum halepense), kochia (Kochia scoparia), morningglory (pitted morningglory, Ipomoea lacunosa), nutsedge (purple nutsedge, Cyperus rotundus), ragweed (common ragweed, Ambrosia elatior), black mustard (Brassica nigra), guineagrass (Panicum maximum), dallisgrass (Paspalum dilatatum), barnyardgrass (Echinochloa crus-galli), sandbur (southern sandbur, Cenchrus echinatus), sowthistle (common sowthistle, Sonchus oleraceous), prickly sida (Sida spinosa), Italian ryegrass (Lolium multiflorum), purslane (common purslane, Portulaca oleracea), signalgrass (broadleaf signalgrass, Brachiaria platyphylla), groundsel (common groundsel, Senecio vulgaris), chickweed (common chickweed, Stellaria media), dayflower (Virginia (VA) dayflower, Commelina virginica), bluegrass (annual bluegrass, Poa annua), naked crabgrass (Digitaria nuda), itchgrass (Rottboellia cochinchinensis), quackgrass (Elytrigia repens), field bindweed (Convolvulus arvensis), spanishneedles (Bidens bipinnata), mallow (common mallow, Malva sylvestris) and Russian thistle (Salsola kali), were planted into a blend of loam soil and sand and treated preemergence with test chemicals formulated in a non-phytotoxic solvent mixture which included a surfactant. At the same time, plants from these weed species were treated with postemergence applications of the test chemicals formulated in the same manner. Plants ranged in height from 2 to 18 cm (1- to 4-leaf stage) for postemergence treatments.
(§2) Treated plants and controls were maintained in a greenhouse for 14 to 21 days, after which time all species were visually evaluated and compared to controls. Plant response ratings, summarized in Table D, are based on a scale of 0 to 100 where 0 is no effect and 100 is complete control. A dash (-) response means no test result.

[2] = tested on: sandbur (southern sandbur, Cenchrus echinatus)
Text: as §1, §2

[3] = tested on: large crabgrass (Digitaria sanguinalis)
Text: as §1, §2

[4] = tested on: Italian ryegrass (Lolium multiflorum)
Text: as §1, §2

[5] = tested on: prickly sida (Sida spinosa)
Text: as §1, §2

[6] = tested on: field bindweed (Convolvulus arvensis)
Text: as §1, §2

[7] = tested on: morningglory (pitted morningglory, Ipomoea lacunosa)
Text: as §1, §2

[8] = tested on: black mustard (Brassica nigra)
Text: as §1, §2

[9] = Postemergence, 31 g ai/ha, scale 0 to 100
[10] = Postemergence, 62 g ai/ha, scale 0 to 100 (0 no effect, 100 complete control)
[11] = Postemergence, 125 g ai/ha, scale 0 to 100 (0 no effect, 100 complete control)
[12] = Postemergence, 16 g ai/ha, scale 0 to 100
[13] = Preemergence, 16 g ai/ha, scale 0 to 100, 0 no effect, 100 complete control
[14] = Preemergence, 31 g ai/ha, scale 0 to 100 (0 no effect, 100 complete control)
[15] = Preemergence, 125 g ai/ha, scale 0 to 100
[16] = Preemergence, 62 g ai/ha, scale 0 to 100
[17] = Postemergence, 31 g ai/ha, scale 0 to 100 (0 no effect, 100 complete control)

COCCn1c(-c2cccc(C)c2)ncc(C(=O)C2=C(O)C3CCC(C3)C2=O)c1=O (stereo not shown) [Compound 233]
Plant response rating, Quackgrass [1, 9]: 0 | Plant response rating, Quackgrass [1, 10]: 10 | Plant response rating, Quackgrass [1, 11]: 25 | Plant response rating, Quackgrass [1, 12]: 0 | Plant response rating, Quackgrass [1, 13]: 0 | Plant response rating, Quackgrass [1, 14]: 0 | Plant response rating, Quackgrass [1, 15]: 0 | Plant response rating, Sandbur [2, 9]: 65 | Plant response rating, Sandbur [2, 10]: 70 | Plant response rating, Sandbur [2, 11]: 75 | Plant response rating, Sandbur [2, 12]: 30 | Plant response rating, Sandbur [2, 13]: 0 | Plant response rating, Sandbur [2, 14]: 0 | Plant response rating, Sandbur [2, 15]: 85 | Plant response rating, Crabgrass, Large [3, 9]: 40 | Plant response rating, Crabgrass, Large [3, 10]: 50 | Plant response rating, Crabgrass, Large [3, 11]: 60 | Plant response rating, Crabgrass, Large [3, 12]: 20 | Plant response rating, Crabgrass, Large [3, 13]: 0 | Plant response rating, Crabgrass, Large [3, 14]: 5 | Plant response rating, Crabgrass, Large [3, 16]: 25 | Plant response rating, Crabgrass, Large [3, 15]: 90 | Plant response rating, Ryegrass, Italian [4, 9]: 0 | Plant response rating, Ryegrass, Italian [4, 10]: 5 | Plant response rating, Ryegrass, Italian [4, 11]: 5 | Plant response rating, Ryegrass, Italian [4, 12]: 0 | Plant response rating, Ryegrass, Italian [4, 13]: 0 | Plant response rating, Ryegrass, Italian [4, 14]: 0 | Plant response rating, Ryegrass, Italian [4, 15]: 20 | Plant response rating, Prickly Sida [5, 9]: 50 | Plant response rating, Prickly Sida [5, 10]: 50 | Plant response rating, Prickly Sida [5, 11]: 60 | Plant response rating, Prickly Sida [5, 12]: 30 | Plant response rating, Prickly Sida [5, 13]: 0 | Plant response rating, Prickly Sida [5, 14]: 0 | Plant response rating, Prickly Sida [5, 16]: 0 | Plant response rating, Prickly Sida [5, 15]: 70 | Plant response rating, Field Bindweed [6, 9]: 50 | Plant response rating, Field Bindweed [6, 10]: 50 | Plant response rating, Field Bindweed [6, 11]: 70 | Plant response rating, Field Bindweed [6, 12]: 10 | Plant response rating, Field Bindweed [6, 13]: 0 | Plant response rating, Field Bindweed [6, 14]: 0 | Plant response rating, Field Bindweed [6, 16]: 85 | Plant response rating, Field Bindweed [6, 15]: 85 | Plant response rating, Morningglory [7, 9]: 60 | Plant response rating, Morningglory [7, 10]: 70 | Plant response rating, Morningglory [7, 11]: 70 | Plant response rating, Morningglory [7, 12]: 50 | Plant response rating, Morningglory [7, 13]: 0 | Plant response rating, Morningglory [7, 14]: 80 | Plant response rating, Morningglory [7, 16]: 95 | Plant response rating, Morningglory [7, 15]: 95 | Plant response rating, Black Mustard [8, 17]: 50 | Plant response rating, Black Mustard [8, 10]: 50 | Plant response rating, Black Mustard [8, 11]: 100 | Plant response rating, Black Mustard [8, 12]: 20 | Plant response rating, Black Mustard [8, 13]: 0 | Plant response rating, Black Mustard [8, 14]: 0 | Plant response rating, Black Mustard [8, 16]: 20 | Plant response rating, Black Mustard [8, 15]: 65

COCCn1c(-c2ccsc2)ncc(C(=O)C2=C(O)C3CCC(C3)C2=O)c1=O (stereo not shown) [Compound 228]
Plant response rating, Quackgrass [1, 11]: 5 | Plant response rating, Sandbur [2, 11]: 5 | Plant response rating, Crabgrass, Large [3, 11]: 75 | Plant response rating, Ryegrass, Italian [4, 11]: 5 | Plant response rating, Prickly Sida [5, 11]: 65 | Plant response rating, Field Bindweed [6, 11]: 70 | Plant response rating, Morningglory [7, 11]: 50 | Plant response rating, Black Mustard [8, 17]: 20 | Plant response rating, Black Mustard [8, 11]: 50

— patent publication US8952024B2, “Herbicidal pyrimidone derivatives” (E I du Pont de Nemours and Company, priority 2009, dated 2015)
